Reference: publication PMC7719179, “Small molecule inhibition of Dynamin-dependent endocytosis targets multiple niche signals and impairs leukemia stem cells” (Nature Communications, 2020)
Several values for one entry are separate records, joined by “and”; a condition that tells them apart may be missing. Equal entries are not always repeated.

What was measured:
Lmo2^Tg DN3a thymocytes = experiment: Absolute numbers of co-cultured Lmo2^Tg DN3a thymocytes after in vitro treatment; format: cell-based, mouse; conditions: 72 h, Dynole 34-2 0.2 μM, Ruxolitinib 0.2 μM, DAPT 0.1 μM
Description: Pre-leukemic and leukemic thymocytes were purified by flow cytometry and co-cultured on GFP-positive OP9 and OP9-DL1 stromal cell lines, as described previously. Thymocytes were co-cultured in reconstituted alpha-MEM medium (#12318, Gibco, Grand Island NY, USA) supplemented with 20% FCS (#12318), HEPES 10 mM (#15630-080), sodium pyruvate 1 mM (#11360-070), β-mercaptoethanol 55 μM (#21985-023), Glutamax 2 mM (#15750-060), 1% Penicillin/Streptomycin (#15140-122), 5 ng/mL rmFLT-3 ligand (#250-31 L, Pepro Tech), 5 ng/mL rmIL-7 (#217-17, Pepro Tech) and 25 ng/mL rmSCF (#250-03, Pepro Tech). […]

[1] = test system: pre-LSC activity of Lmo2^Tg DN3a thymocytes; experiment: Transplantation of in vitro treated Lmo2^Tg DN3a thymocytes (fold expansion, engraftment); format: in vivo, mouse; conditions: thymus of recipients 6 weeks post-transplantation of Lmo2^Tg DN3a thymocytes treated in vitro (Dynole 34-2 0.2 μM, Ruxolitinib 0.2 μM, DAPT 0.1 μM); individual recipients
Description: Single-cell suspension of murine thymus cells were intravenously injected into sublethally irradiated (650 Rads) isogenic Ly5.1 (Cd45.1) mice. Fold expansion was calculated by dividing the absolute output number of donor-derived DN3a cells harvested at the experimental endpoint by the respective number of DN3a thymocytes injected in each recipient. Limiting dilution transplantations were performed as described, by injecting various doses (10^1 to 10^6) of thymocytes per recipient, and mice were scored positive when T-cell lineage reconstitution assessed 6 weeks after transplantation was >1%. Leukemia-propagating cell frequency was calculated by applying Poisson statistics using the ELDA: Extreme Limiting Dilution Analysis software (Walter and Eliza Hall Institute Bioinformatics, Parkville VIC, Australia)[96]. Limiting dilution transplantations were performed independently from any other transplantation assays, using thymocytes from three different Lmo2^Tg mice for each cohort. Kaplan–Meier survival and statistical analysis were performed using GraphPad Prism. 6.0 software (GraphPad Software Inc, San Diego CA, USA).

[2] = test system: Hes1 in leukemic DN3a cells from primary Lmo2^Tg T-ALL; experiment: Notch1 (DL1)-induced Hes1 in leukemic DN3a cells from primary Lmo2^Tg T-ALL; format: cell-based, mouse
Description: Phosphoflow analysis was performed as previously described. Briefly, 2 × 10^6 cells stained for surface markers were subsequently resuspended into PBS 1× + 4% v/v paraformaldehyde and incubated for 10 min at 4 °C for fixation. Fixed cells were washed twice using PBS 1×, then resuspended in pre-chilled at −20 °C Perm Buffer III (BD Pharmingen) and incubated 30 min at 4 °C for permeabilization. Cells were washed twice using PBS 1× and incubated overnight at 4 °C in PBS 1× + 2% v/v fetal calf serum (FCS) with Cell Signalling purified antibodies (Genesearch Pty Ltd, Arundel QLD, Australia) against pSTAT5 (Tyr694; #9359), phospho-p38 MAPK (Thr180/Tyr182; #4511), phospho-p44/42 (Erk1/2; #9102), phospho-S6 (Ser235/236; #4856) and phospho-Akt (Ser473; #9271) or isotype control. For intracellular HES1 detection, cells stained for surface markers were subsequently fixed and permeabilized using the BD Cytofix/Cytoperm^TM Kit and incubated overnight at 4 °C in PBS 1× + 2% v/v FCS with a purified antibody against HES1 (D6PU; #11988, Cell Signalling) or isotype control. After staining with primary antibodies for phosphoflow or intracellular detection, cells were incubated in permeabilization buffer with donkey Alexa Fluor 488-conjugated anti-rabbit secondary antibody (A-21206, lot #1910751, Molecular Probes, Invitrogen) or goat Alexa Fluor 546-conjugated anti-rabbit secondary antibody (A-11035, lot #1904467, Molecular Probes, Invitrogen) for 1 h on ice, and washed twice in PBS 1×. Fluorescence-activated cell sorting (FACS) analysis was performed using LSRII and LSR Fortessa cytometers, following the gating strategies described in Supplementary Fig. 11. Cell sorting was performed with a FACSAria or BD Influx.
For in vitro NOTCH1 signalling activation assays, cells were seeded on OP9 and OP9-DL1 stromal cell lines as described in the co-culture assays section and incubated overnight with either Dynole 34-2 or Ruxolitinib or DAPT resuspended in DMSO. Harvested cells were washed twice using cold PBS 1× and incubated with 25 ng/mL Rat IgG (Sigma-Aldrich Pty Ltd, Castle Hill NSW, Australia) with a PE-conjugated antibody for detection of NOTCH1 for 1 h on ice, as described in the FACS analysis section. PE-conjugated isotype was used as negative control. Cells were washed twice, fixed and analysed for intracellular HES1 detection by flow cytometry as described in the FACS analysis section. The analysis was performed in triplicate and the MFI observed in thymocytes co-cultured on OP9 cells was reported as 100%.

[3] = leukemic DN3a cells of TALL249, Notch1 (DL1) stimulation
[4] = leukemic DN3a cells of TALL257, Notch1 (DL1) stimulation
[5] = leukemic DN3a cells of TALL273, Notch1 (DL1) stimulation
[6] = leukemic DN3a cells of TALL582, Notch1 (DL1) stimulation
[7] = leukemic DN3a cells of TALL588, Notch1 (DL1) stimulation
[8] = leukemic DN3a cells of TALL742, Notch1 (DL1) stimulation

C[C@H](NC(=O)Cc1cc(F)cc(F)c1)C(=O)N[C@H](C(=O)OC(C)(C)C)c1ccccc1 [DAPT, N-[N-(3,5-Difluorophenacetyl)-L-alanyl]-S-phenylglycine t-butyl ester]
Absolute numbers DN3a cells (Lmo2^Tg DN3a thymocytes): 26800 and 17800 and 27000 and 25800 and 24600 | Fold expansion DN3a cells [1]: 0.05 fold and 0.01 fold and 0.07 fold and 2.41 fold and 0.20 fold and 11.64 fold | Hes1 (MFI) [2, 3]: 6973 MFI | Hes1, FOLD over unstimulated [2, 3]: 0.92 fold | Hes1 (MFI) [2, 4]: 4801 MFI | Hes1, FOLD over unstimulated [2, 4]: 0.84 fold | Hes1 (MFI) [2, 5]: 7737 MFI | Hes1, FOLD over unstimulated [2, 5]: 0.92 fold | Hes1 (MFI) [2, 6]: 5294 MFI | Hes1, FOLD over unstimulated [2, 6]: 0.98 fold | Hes1 (MFI) [2, 7]: 6134 MFI | Hes1, FOLD over unstimulated [2, 7]: 1.12 fold | Hes1 (MFI) [2, 8]: 7313 MFI | Hes1, FOLD over unstimulated [2, 8]: 0.93 fold

CCCCCCCCNC(=O)C(C#N)=Cc1cn(CCCN(C)C)c2ccccc12 [Dynole 34-2, 2-Cyano-N-octyl-3-(1-(3-dimethylaminopropyl)-1H-indol-3-yl)-acrylamide]
Absolute numbers DN3a cells (Lmo2^Tg DN3a thymocytes): 28200 and 18800 and 27200 and 23300 and 23200 | Fold expansion DN3a cells [1]: 0.05 fold and 0.01 fold and 3.00 fold and 6.41 fold and 5.91 fold and 0.19 fold and 17.69 fold | Hes1 (MFI) [2, 3]: 7095 MFI | Hes1, FOLD over unstimulated [2, 3]: 0.94 fold | Hes1 (MFI) [2, 4]: 5988 MFI | Hes1, FOLD over unstimulated [2, 4]: 1.05 fold | Hes1 (MFI) [2, 5]: 7679 MFI | Hes1, FOLD over unstimulated [2, 5]: 0.92 fold | Hes1 (MFI) [2, 6]: 5082 MFI | Hes1, FOLD over unstimulated [2, 6]: 0.94 fold | Hes1 (MFI) [2, 7]: 7974 MFI | Hes1, FOLD over unstimulated [2, 7]: 1.46 fold | Hes1 (MFI) [2, 8]: 7594 MFI | Hes1, FOLD over unstimulated [2, 8]: 0.96 fold

N#CC[C@H](C1CCCC1)n1cc(-c2ncnc3[nH]ccc23)cn1 [Ruxolitinib]
Fold expansion DN3a cells [1]: 0.06 fold and 0.01 fold and 5.29 fold and 8.54 fold and 22.76 fold and 8.51 fold | Hes1 (MFI) [2, 3]: 8215 MFI | Hes1, FOLD over unstimulated [2, 3]: 1.09 fold | Hes1 (MFI) [2, 4]: 8036 MFI | Hes1, FOLD over unstimulated [2, 4]: 1.41 fold | Hes1 (MFI) [2, 5]: 8741 MFI | Hes1, FOLD over unstimulated [2, 5]: 1.04 fold | Hes1 (MFI) [2, 6]: 6452 MFI | Hes1, FOLD over unstimulated [2, 6]: 1.20 fold | Hes1 (MFI) [2, 7]: 8104 MFI | Hes1, FOLD over unstimulated [2, 7]: 1.48 fold | Hes1 (MFI) [2, 8]: 10321 MFI | Hes1, FOLD over unstimulated [2, 8]: 1.31 fold
